{"source": "paper PMC4387272", "about": "“Pharmacokinetic, pharmacodynamic and biomarker evaluation of transforming growth factor-β receptor I kinase inhibitor, galunisertib, in phase 1 study in patients with advanced cancer” (Investigational new drugs, 2014)", "key": {"glioma": {"tested_on": "glioma", "experiment": "Radiographic response / clinical benefit (RECIST, Macdonald criteria) in first-in-human dose study", "format": "in vivo", "conditions": "for Cycles (n) (best response): individual glioma patients with sequenced tumor; for CR/PR/SD ≥6 cycles, Low grade/secondary glioma / CR/PR/SD ≥6 cycles, Primary glioma: number of patients; for Clinical Benefit / No Clinical Benefit: Parts A and B", "protocol": "Starting with Cohort 3, only patients with relapsed and progressive glioma were eligible for this study. All patients were assessed for radiographic responses using Response Evaluation Criteria in Solid Tumors (RECIST) and, for glioma patients, using Macdonald criteria. All patients had to have an Eastern Cooperative Oncology Group performance status of ≤2. Patients were required to have adequate hematologic, hepatic, and renal function and discontinue all previous therapies for cancer at least 4 weeks prior to study enrollment. Exclusion criteria included medically uncontrolled cardiovascular illness, electrocardiogram anomalies, serious pre-existing medical conditions, and any unapproved therapy.\n• Part A was a dose escalation study using galunisertib monotherapy administered initially to patients with advanced or metastatic cancer as a daily continuous dosing. Starting with Cohort 3 and for the remainder of the study, patients received galunisertib on an intermittent dose regimen of 14 days on/14 days off for a 28-day cycle. • Part B was a safety study using galunisertib on an intermittent dose regimen at 160 mg/day (80 mg twice daily [BID]) and 300 mg/day (150 mg BID) in combination with lomustine given once every 6 weeks in patients with recurrent malignant glioma who had previously failed approved treatments. • Part C was a relative bioavailability (RBA) crossover study conducted at only one center to assess two new formulations (publication in preparation). All patients were then eligible to continue on 300 mg/day dosing. In this part of the study, patients with different tumor histologies were eligible to participate; the majority of patients had glioma. The only results from Part C presented in this publication are the results of the T cell subset examination. Other results will be published elsewhere.\nA power model was fitted to PK parameter estimates Cmax and AUC(0–24) to assess the extent of dose proportionality. Clinical benefit in this study has been defined as a patient with either a complete response (CR), partial response (PR), and stable disease (SD) ≥6 cycles. MAIP results from plasma samples taken at baseline were compared between patients completing >6 cycles and ≤6 cycles using ANOVA. The analysis included controlling the false discovery rate to 30 % using the Benjamini-Hochberg method. Boxplots showing the distributions at baseline of the potentially prognostic markers are provided. Observed TGF-β-stimulated pSMAD2 (pSMAD2^+) in PBMCs was normalized by TGF-β-stimulated tSMAD2 [(tSMAD2^+) ^0.6[9, 10]] prior to determining the minimum normalized pSMAD2^+ and calculating percentage inhibition post-baseline for each patient. Baseline and minimum post-baseline values for each patient together with maximum percentage inhibition are presented on a line and scatter plot for each patient in Cohort 3 and summary statistics by time point provided from a standard mixed effects regression model, fitting log normalized pSMAD2^+ to the fixed effects of log baseline normalized pSMAD2^+, nominal time point, dose and their interaction and patient as a random effect.\nIn order to interpret protein and gene expression as potential prognostic factors we used the concept of clinical benefit based on radiographic response and/or stable disease for ≥6 cycles (Table 3)."}, "ID1 and CD44": {"tested_on": "ID1 and CD44", "set-up": "method as in PMID 21156287", "conditions": "1 patient, surgical re-resection during off-period of intermittent dosing; cited from earlier work"}, "[1]": {"set-up": "method as in PMID 24868575", "conditions": "population PK model, Cohorts 1 through 5; cited from earlier work"}, "[2]": {"tested_on": "T cell subsets (CD3+, CD8+, CD4+, CD4+CD25+CD127-/LOFoxp3+)", "experiment": "Flow cytometry for T cell subsets", "format": "in vivo, Human", "source_text": "Blood samples were obtained and prepared for flow cytometry assessment following the instructions of Quintiles Laboratories (Durham, NC). After red blood cell lysis, cells were stained for CD3^+, CD8^+, CD4^+ and CD4^+CD25^+ CD127^−/LOFoxp3^+ and events were collected by flow cytometer per standard Quintiles procedures. All results were reported as absolute cell counts and as percentage of lymphocytes.\n(§1) An amendment was introduced to assess T cell subsets in Part B and Part C."}, "MDC/CCL22": {"tested_on": "MDC/CCL22", "experiment": "Multi-analyte immunoassay panel (MAIP) of plasma proteins", "format": "in vivo, Human", "conditions": "Part A and Part B, data not shown", "protocol": "Plasma samples were analyzed for PD assessments by using a multi-analyte immunoassay panel (MAIP) (Myriad RBM, Austin, TX). The MAIP measurements included 89 plasma proteins. These proteins were evaluated at baseline and during the first cycle of treatment.\nMDC/CCL22 is associated with modulating T regulatory cells and it may be involved in the activation of antigen-presenting cells. Whether such levels confer a better prognosis remains to be assessed. The lack of a change in MDC/CCL22 may perhaps indicate that this chemokine is not affected by galunisertib, but long-term examinations will be needed to further confirm this initial impression. Other plasma proteins were also found to be at different levels for patients treated with ≥6 cycles or ≤6 cycles."}, "[3]": {"experiment": "Safety and blood counts in first-in-human dose study", "format": "in vivo", "source_text": "as §1"}, "[4]": {"conditions": "Part B, in combination with lomustine"}, "[5]": {"conditions": "Part B, in combination with lomustine, n=26"}, "[6]": {"conditions": "Primary glioma (n=13), IDH1/2 mutation"}, "[7]": {"conditions": "Primary glioma (n=13), Other mutation"}, "[8]": {"conditions": "Secondary or low grade glioma (n=8), IDH1/2 mutation"}, "[9]": {"conditions": "Secondary or low grade glioma (n=8), Other mutation"}, "[10]": {"conditions": "patients with advanced cancer, first-in-human dose study"}}, "note": "Several values for one entry are separate records, joined by “and”; a condition that tells them apart may be missing. Equal values may be shown once. Marks after values point to notes of the source that are not given here.", "data": [{"smiles": "Cc1cccc(-c2nn3c(c2-c2ccnc4ccc(C(N)=O)cc24)CCC3)n1", "note": "[galunisertib]", "values": [{"measurement": "patients with primary glioblastoma showing radiographic responses or SD ≥6 cycles", "setting": "glioma; 3/13 patients, no IDH1 or IDH2 mutation", "value": 23, "unit": "%"}, {"measurement": "patients with tumors not containing the EGFR variant treated for ≥6 cycles", "setting": "glioma; 7/13 patients", "value": 54, "unit": "%"}, {"measurement": "patients with tumors containing EGFR variants treated for <6 cycles", "setting": "glioma; 8/8 patients (2 in Part A and 6 in Part B)", "value": 100, "unit": "%"}, {"measurement": "patients with clinical benefit (CR, PR or SD ≥6 cycles)", "setting": "glioma; 12 of 79 patients, all parts, all in glioma", "value": 15, "unit": "%"}, {"measurement": "cycles treated, patients still receiving galunisertib as of June 2014", "setting": "glioma; Part A, 2 individual patients", "value": "73 cycles and 55 cycles"}, {"measurement": "Cycles on study treatment, median (range)", "setting": "glioma; Part A, monotherapy, N=39", "value": "2 (1–46)"}, {"measurement": "Cycles (n) (best response)", "setting": "glioma; Part A, monotherapy", "value": "3 and 2 and 1 and 29 (CR) and 13 (PR) and 22 (PR) and 46 (CR) and 40 (SD)"}, {"measurement": "CR/PR", "setting": "glioma; Part A, monotherapy, n=30", "value": "5 (16.7) n (%)"}, {"measurement": "CR/PR/SD ≥6 cycles", "setting": "glioma; Part A, monotherapy, n=30", "value": "6 n (%) and 6 (20.0) n (%)"}, {"measurement": "On study treatment at study closure in 2012", "setting": "glioma; Part A, monotherapy, n=30", "value": "2 (6.7) n (%)"}, {"measurement": "CR/PR/SD ≥6 cycles, Low grade/secondary glioma", "setting": "glioma; Part A, monotherapy", "value": 3}, {"measurement": "CR/PR/SD ≥6 cycles, Primary glioma", "setting": "glioma; Part A, monotherapy", "value": 3}, {"measurement": "cycles treated, patient still receiving galunisertib as of June 2014", "setting": "glioma; Part B, 1 patient", "value": 48, "unit": "cycles"}, {"measurement": "Cycles on study treatment, median (range)", "setting": "glioma; Part B, in combination with lomustine, N=26", "value": "2 (1–22)"}, {"measurement": "Cycles (n) (best response)", "setting": "glioma; [4]", "value": "10 (PR) and 12 (SD) and 2 and 4 and 1"}, {"measurement": "CR/PR", "setting": "glioma; [5]", "value": "2 (7.7) n (%)"}, {"measurement": "CR/PR/SD ≥6 cycles", "setting": "glioma; [5]", "value": "6 ^* n (%) and 6 (23.1) ^* n (%)"}, {"measurement": "On study treatment at study closure in 2012", "setting": "glioma; [5]", "value": "1 (3.8) n (%)"}, {"measurement": "CR/PR/SD ≥6 cycles, Low grade/secondary glioma", "setting": "glioma; [4]", "value": 4}, {"measurement": "CR/PR/SD ≥6 cycles, Primary glioma", "setting": "glioma; [4]", "value": 2}, {"measurement": "Clinical Benefit", "setting": "glioma; [6]", "value": "0/13"}, {"measurement": "No Clinical Benefit", "setting": "glioma; [6]", "value": "0/13"}, {"measurement": "Clinical Benefit", "setting": "glioma; [7]", "value": "3/13"}, {"measurement": "No Clinical Benefit", "setting": "glioma; [7]", "value": "10/13"}, {"measurement": "Clinical Benefit", "setting": "glioma; [8]", "value": "4/8"}, {"measurement": "No Clinical Benefit", "setting": "glioma; [8]", "value": "1/8"}, {"measurement": "Clinical Benefit", "setting": "glioma; [9]", "value": "0/8"}, {"measurement": "No Clinical Benefit", "setting": "glioma; [9]", "value": "3/8"}, {"measurement": "patients with clinical benefit (CR/PR and SD ≥6 cycles) among patients with IDH1/2 mutation", "setting": "glioma; of the 5 patients with IDH1/2 mutation", "value": 4, "unit": "patients"}, {"measurement": "expression of ID1 and CD44 in tumor tissue after treatment", "setting": "ID1 and CD44", "value": "reduced"}, {"measurement": "mean population CL", "setting": "[1]", "value": 38, "unit": "L/h"}, {"measurement": "steady state volume of distribution (Vss)", "setting": "[1]", "value": 210, "unit": "L"}, {"measurement": "lymphocyte counts and the respective subsets", "setting": "[2]; [4]", "value": "reduced"}, {"measurement": "counts of CD3+, CD8+, CD4+ and CD4+CD25+CD127−/LOFoxp3+ cells", "setting": "[2]; Part C, monotherapy", "value": "either stabilized or increased"}, {"measurement": "post-treatment plasma levels of MDC/CCL22", "setting": "MDC/CCL22", "value": "did not show a change"}, {"measurement": "lymphocyte counts", "setting": "[3]; Part B, combination of galunisertib and lomustine, some patients", "value": "reduction in lymphocyte counts"}, {"measurement": "bone marrow toxicity (neutrophils, platelets, lymphocyte counts)", "setting": "[3]; Part C, monotherapy 300 mg/day, patients receiving more than 2 cycles", "value": "no comparable bone marrow toxicity"}, {"measurement": "cardiac adverse events", "setting": "[3]; [10]", "value": "no cardiac adverse events"}, {"measurement": "toxicity / safety profile", "setting": "[3]; [10]", "value": "favorable safety profile"}, {"measurement": "toxicity / safety profile", "setting": "[3]; patients with advanced cancer, first-in-human dose study, listed as Galunisertib", "value": "favorable toxicity profile"}]}]}
